Calls of active or inactive are those of the source. No cut-off for these calls is given here.
Experiments:
[1] = system: HCC827; assay: Antiproliferative activity against human HCC827 cells harboring EGFR E746-A750 deletion mutant after 72 hrs by MTT assay; type: functional, cell-based; settings: HCC827, 72 h
[2] = system: NCI-H1975; assay: Antiproliferative activity against human NCI-H1975 cells harboring EGFR L858R/T790M double mutant after 72 hrs by MTT assay; type: functional, cell-based; settings: NCI-H1975, 72 h
[3] = molecular target: Epidermal growth factor receptor (Homo sapiens, UniProt P00533, C797S/L858R/T790M); assay: Inhibition of wild type EGFR L858R/T790M/C797S mutant (unknown origin) using Poly (Glu, Tyr) as substrate after 40 mins by kinase-Glo luminescence assay
[4] = system: A549; assay: Antiproliferative activity against human A549 cells harboring wild type EGFR after 72 hrs by MTT assay; type: cell-based; settings: A549, 72 h
[5] = molecular target: Epidermal growth factor receptor (Homo sapiens, UniProt P00533, L858R/T790M); assay: Inhibition of wild type EGFR L858R/T790M double mutant (unknown origin) using Poly (Glu, Tyr) as substrate after 40 mins by kinase-Glo luminescence assay
[6] = molecular target: Epidermal growth factor receptor (Homo sapiens, UniProt P00533); assay: Inhibition of wild type EGFR (unknown origin) using Poly (Glu, Tyr) as substrate after 40 mins by kinase-Glo luminescence assay
[7] = molecular target: Epidermal growth factor receptor (Homo sapiens, UniProt P00533, L858R); assay: Inhibition of wild type EGFR L858R mutant (unknown origin) using Poly (Glu, Tyr) as substrate after 40 mins by kinase-Glo luminescence assay
[8] = system: HCC827; assay: Induction of apoptosis in human HCC827 cells harboring EGFR E746-A750 deletion mutant assessed as early apoptotic cells at 3 uM after 24 hrs by Annexin V-FITC/propidium iodide staining based flow cytometry (reference value: 1.34%); type: functional
[9] = system: HCC827; assay: Induction of apoptosis in human HCC827 cells harboring EGFR E746-A750 deletion mutant assessed as late apoptotic cells at 3 uM after 24 hrs by Annexin V-FITC/propidium iodide staining based flow cytometry (reference value: 27.14%); type: functional
[10] = system: Epidermal growth factor receptor (Homo sapiens), P00533 [UNDEFINED MUTATION]; assay: Inhibition of EGFR E746-A750 deletion mutant in human HCC827 cells assessed as reduction in EGFR phosphorylation at 3.33 uM after 8 hrs by Western blot analysis; type: cell-based
[11] = system: Epidermal growth factor receptor (Homo sapiens), P00533 [UNDEFINED MUTATION]; assay: Inhibition of EGFR E746-A750 deletion mutant in human HCC827 cells assessed as reduction in EGFR phosphorylation after 8 hrs by Western blot analysis; type: cell-based
[12] = system: Epidermal growth factor receptor (Homo sapiens), P00533 [UNDEFINED MUTATION]; assay: Inhibition of EGFR E746-A750 deletion mutant in human HCC827 cells assessed as reduction in ERK phosphorylation at 3.33 uM after 8 hrs by Western blot analysis; type: cell-based

Sequence of Epidermal growth factor receptor (Homo sapiens, UniProt P00533, L858R/T790M) (P00533 25-1210 T790M/L858R limits assumed): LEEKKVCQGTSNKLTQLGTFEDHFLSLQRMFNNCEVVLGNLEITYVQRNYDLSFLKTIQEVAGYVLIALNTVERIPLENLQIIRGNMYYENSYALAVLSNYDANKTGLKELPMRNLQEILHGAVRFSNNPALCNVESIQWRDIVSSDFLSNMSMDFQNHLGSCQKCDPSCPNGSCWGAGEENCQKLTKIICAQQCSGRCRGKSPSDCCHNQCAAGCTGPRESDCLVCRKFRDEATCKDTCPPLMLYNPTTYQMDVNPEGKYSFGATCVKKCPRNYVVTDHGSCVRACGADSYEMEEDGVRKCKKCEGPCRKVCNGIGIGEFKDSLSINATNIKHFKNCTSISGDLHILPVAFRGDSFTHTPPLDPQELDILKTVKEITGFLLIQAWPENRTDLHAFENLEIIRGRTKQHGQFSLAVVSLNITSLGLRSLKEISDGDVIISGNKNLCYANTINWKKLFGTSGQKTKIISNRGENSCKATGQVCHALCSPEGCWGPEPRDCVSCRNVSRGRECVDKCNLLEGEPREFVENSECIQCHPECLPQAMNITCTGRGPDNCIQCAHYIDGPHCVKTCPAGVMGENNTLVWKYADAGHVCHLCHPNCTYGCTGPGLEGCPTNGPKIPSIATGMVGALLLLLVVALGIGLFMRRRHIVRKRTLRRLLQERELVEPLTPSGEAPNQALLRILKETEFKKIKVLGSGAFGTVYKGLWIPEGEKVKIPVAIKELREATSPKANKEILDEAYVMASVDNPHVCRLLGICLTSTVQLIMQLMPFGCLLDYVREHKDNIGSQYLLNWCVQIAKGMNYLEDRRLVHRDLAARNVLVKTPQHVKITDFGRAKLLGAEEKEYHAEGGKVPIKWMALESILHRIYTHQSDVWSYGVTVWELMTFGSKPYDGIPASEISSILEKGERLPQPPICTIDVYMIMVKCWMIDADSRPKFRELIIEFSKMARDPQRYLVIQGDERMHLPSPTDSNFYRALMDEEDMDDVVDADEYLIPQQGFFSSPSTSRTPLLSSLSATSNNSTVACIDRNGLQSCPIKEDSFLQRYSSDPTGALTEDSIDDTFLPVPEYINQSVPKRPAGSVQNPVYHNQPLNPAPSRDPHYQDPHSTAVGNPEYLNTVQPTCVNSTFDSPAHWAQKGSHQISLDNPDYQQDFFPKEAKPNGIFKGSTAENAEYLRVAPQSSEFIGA
Sequence of Epidermal growth factor receptor (Homo sapiens, UniProt P00533, C797S/L858R/T790M) (P00533 25-1210 T790M/C797S/L858R limits assumed): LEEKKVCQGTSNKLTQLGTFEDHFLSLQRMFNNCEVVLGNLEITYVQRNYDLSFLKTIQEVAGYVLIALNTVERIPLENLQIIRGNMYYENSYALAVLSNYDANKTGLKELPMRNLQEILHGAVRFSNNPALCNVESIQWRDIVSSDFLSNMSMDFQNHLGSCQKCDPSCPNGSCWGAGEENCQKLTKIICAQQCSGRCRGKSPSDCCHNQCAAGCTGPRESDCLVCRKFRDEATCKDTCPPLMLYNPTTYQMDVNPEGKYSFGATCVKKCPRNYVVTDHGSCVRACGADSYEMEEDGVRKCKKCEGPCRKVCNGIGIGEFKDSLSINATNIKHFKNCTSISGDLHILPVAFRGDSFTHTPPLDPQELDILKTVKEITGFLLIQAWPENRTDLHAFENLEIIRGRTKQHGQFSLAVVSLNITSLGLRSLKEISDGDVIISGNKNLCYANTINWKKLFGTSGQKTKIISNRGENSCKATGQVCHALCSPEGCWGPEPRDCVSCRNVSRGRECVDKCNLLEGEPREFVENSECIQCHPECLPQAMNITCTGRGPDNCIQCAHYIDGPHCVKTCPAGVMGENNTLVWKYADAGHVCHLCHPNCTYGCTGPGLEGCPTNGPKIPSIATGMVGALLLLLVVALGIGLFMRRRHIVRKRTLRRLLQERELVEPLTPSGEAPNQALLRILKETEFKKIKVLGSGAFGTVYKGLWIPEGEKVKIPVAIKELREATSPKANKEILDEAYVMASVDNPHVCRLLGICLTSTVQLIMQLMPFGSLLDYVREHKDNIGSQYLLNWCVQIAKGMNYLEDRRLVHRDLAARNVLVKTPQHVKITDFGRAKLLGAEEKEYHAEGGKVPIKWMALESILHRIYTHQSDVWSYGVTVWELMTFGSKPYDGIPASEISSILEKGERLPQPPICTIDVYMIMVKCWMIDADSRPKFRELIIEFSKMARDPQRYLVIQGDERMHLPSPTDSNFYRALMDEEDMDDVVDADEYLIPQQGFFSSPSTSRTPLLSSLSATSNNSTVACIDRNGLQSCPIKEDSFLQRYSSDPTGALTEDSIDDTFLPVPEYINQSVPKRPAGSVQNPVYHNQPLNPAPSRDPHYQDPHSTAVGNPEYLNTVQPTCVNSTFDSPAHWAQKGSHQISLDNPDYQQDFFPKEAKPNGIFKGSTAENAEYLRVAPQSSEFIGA
Sequence of Epidermal growth factor receptor (Homo sapiens, UniProt P00533, L858R) (P00533 25-1210 L858R limits assumed): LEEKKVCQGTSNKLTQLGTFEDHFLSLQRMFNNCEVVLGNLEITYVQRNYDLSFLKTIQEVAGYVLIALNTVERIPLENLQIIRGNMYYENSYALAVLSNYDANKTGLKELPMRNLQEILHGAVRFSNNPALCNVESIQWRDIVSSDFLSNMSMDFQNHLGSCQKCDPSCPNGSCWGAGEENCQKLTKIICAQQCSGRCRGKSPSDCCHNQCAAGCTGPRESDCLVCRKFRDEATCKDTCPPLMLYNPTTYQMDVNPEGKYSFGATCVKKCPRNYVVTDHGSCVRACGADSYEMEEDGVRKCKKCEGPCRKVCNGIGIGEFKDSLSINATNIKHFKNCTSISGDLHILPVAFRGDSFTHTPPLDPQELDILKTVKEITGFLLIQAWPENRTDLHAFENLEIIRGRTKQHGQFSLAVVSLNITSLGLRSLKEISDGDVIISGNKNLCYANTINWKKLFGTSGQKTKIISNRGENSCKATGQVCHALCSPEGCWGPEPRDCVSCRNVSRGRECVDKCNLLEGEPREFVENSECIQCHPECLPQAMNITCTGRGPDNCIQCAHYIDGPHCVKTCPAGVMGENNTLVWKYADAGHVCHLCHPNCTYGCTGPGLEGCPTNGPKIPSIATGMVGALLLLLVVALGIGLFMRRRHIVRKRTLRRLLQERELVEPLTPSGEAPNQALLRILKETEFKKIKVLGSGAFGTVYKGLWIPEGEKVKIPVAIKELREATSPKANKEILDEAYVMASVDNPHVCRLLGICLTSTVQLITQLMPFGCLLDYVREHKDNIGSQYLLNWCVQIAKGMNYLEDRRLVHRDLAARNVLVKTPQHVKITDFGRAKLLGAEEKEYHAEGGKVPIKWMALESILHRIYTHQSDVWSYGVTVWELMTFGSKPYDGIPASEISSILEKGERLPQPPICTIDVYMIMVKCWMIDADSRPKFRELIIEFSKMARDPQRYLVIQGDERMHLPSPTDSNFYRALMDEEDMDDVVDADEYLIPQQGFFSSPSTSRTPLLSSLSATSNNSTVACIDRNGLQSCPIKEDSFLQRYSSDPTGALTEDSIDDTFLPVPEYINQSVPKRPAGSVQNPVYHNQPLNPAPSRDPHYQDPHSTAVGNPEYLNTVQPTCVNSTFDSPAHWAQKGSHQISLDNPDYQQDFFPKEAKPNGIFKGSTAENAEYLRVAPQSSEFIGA
Sequence of Epidermal growth factor receptor (Homo sapiens, UniProt P00533) (P00533 whole entry): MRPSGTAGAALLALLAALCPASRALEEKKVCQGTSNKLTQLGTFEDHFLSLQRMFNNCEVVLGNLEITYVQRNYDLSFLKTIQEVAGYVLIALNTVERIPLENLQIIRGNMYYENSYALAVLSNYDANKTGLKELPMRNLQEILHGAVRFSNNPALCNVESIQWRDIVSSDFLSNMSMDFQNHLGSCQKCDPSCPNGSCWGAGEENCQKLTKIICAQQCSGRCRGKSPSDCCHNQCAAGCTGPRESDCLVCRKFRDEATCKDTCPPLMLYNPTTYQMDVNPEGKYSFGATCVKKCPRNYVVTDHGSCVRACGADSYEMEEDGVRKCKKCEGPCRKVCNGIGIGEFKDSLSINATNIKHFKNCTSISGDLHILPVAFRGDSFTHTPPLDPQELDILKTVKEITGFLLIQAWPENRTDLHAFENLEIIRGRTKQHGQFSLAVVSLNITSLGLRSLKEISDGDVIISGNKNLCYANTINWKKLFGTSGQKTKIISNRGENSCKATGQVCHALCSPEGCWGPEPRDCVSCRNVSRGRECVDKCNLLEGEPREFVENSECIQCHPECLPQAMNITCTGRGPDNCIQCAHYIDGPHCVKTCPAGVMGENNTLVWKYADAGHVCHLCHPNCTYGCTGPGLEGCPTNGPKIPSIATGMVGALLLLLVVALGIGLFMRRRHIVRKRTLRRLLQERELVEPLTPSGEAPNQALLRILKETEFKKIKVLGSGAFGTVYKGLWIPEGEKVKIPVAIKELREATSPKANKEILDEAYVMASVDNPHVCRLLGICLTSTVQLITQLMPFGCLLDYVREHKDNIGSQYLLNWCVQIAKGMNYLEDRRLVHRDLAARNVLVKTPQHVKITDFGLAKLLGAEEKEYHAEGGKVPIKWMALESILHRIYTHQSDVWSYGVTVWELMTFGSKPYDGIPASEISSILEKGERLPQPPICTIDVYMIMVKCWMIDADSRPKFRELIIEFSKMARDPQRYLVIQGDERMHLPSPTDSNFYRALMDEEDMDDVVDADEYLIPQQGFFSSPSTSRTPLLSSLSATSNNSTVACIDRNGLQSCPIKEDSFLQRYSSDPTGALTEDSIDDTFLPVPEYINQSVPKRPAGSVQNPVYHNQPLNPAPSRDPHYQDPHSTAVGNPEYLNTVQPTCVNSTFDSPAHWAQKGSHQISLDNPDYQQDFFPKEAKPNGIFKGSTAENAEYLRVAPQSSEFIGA

Row | SMILES | IC50 [1] [nM] | IC50 [2] [nM] | IC50 [3] [nM] | IC50 [4] [nM] | also measured
1 | CN1CCN(c2ccc(Nc3cc4c(N5CCCC5)nc(Nc5ccccc5)nc4cn3)cc2)CC1 | > 10000 | – | – | – | –
2 | CN(C)C1CCN(c2ccc(Nc3cc4c(N5CCOCC5)nc(NCc5ccccc5)nc4cn3)nc2)CC1 | 1640 | 7160 | – | – | –
3 | Cn1cc(Nc2cc3c(N4CCOCC4)nc(Nc4ccccc4)nc3cn2)cn1 | > 10000 | – | – | – | –
4 | CN1CCN(c2nc(Nc3ccc(F)cc3)nc3cnc(Nc4ccc(N5CCC(N(C)C)CC5)cn4)cc23)CC1 | 130 | 550 | 34.8 | 600 | –
5 | CN(C)CCN(C)c1nc(Nc2ccc(F)cc2)nc2cnc(Nc3ccc(N4CCC(N(C)C)CC4)cn3)cc12 | 450 | 900 | 24.7 | 830 | –
6 | CN1CCN(c2ccc(Nc3cc4c(N5CCCCC5)nc(Nc5ccccc5)nc4cn3)nc2)CC1 | 270 | 2050 | 23 | 1330 | IC50 [5]: 45 nM; IC50 [6]: 1.1 nM; IC50 [7]: 1.1 nM
7 | CN(C)C1CCN(c2ccc(Nc3cc4c(N5CCOCC5)nc(Nc5cccc(C(F)(F)F)c5)nc4cn3)nc2)CC1 | 890 | 680 | – | 740 | –
8 | CN(C)C1CCN(c2ccc(Nc3cc4c(N5CCOCC5)nc(NCc5cccnc5)nc4cn3)nc2)CC1 | > 10000 | – | – | – | –
9 | CN(C)C1CCN(c2ccc(Nc3cc4c(N5CCOCC5)nc(NCc5ccccn5)nc4cn3)nc2)CC1 | 7900 | > 10000 | – | – | –
10 | CN1CCN(c2ccc(Nc3cc4c(N5CCCC5)nc(Nc5ccccc5)nc4cn3)nc2)CC1 | 1350 | 2470 | – | 8700 | IC50 [5]: 85 nM; IC50 [6]: 4.4 nM; IC50 [7]: 2.3 nM
11 | CN(C)C1CCN(c2ccc(Nc3cc4c(N5CCOCC5)nc(Nc5ccccc5)nc4cn3)nc2)CC1 | 110 | 680 | 54.1 | 550 | IC50 [5]: 57.7 nM; Activity [8]: 9.32%; IC50 [6]: 4.6 nM; IC50 [7]: 3.9 nM; Activity [9]: 64.85%
12 | CN(C)C1CCN(c2ccc(Nc3cc4c(N5CCOCC5)nc(Nc5cccnc5)nc4cn3)nc2)CC1 | 1820 | 12400 | – | – | –
13 | CN1CCN(c2ccc(Nc3cc4c(N5CCCC5)nc(Nc5ccc(F)c(Cl)c5)nc4cn3)nc2)CC1 | 1390 | 520 | – | – | –
14 | CN(C)C1CCN(c2ccc(Nc3cc4c(N5CCOCC5)nc(Oc5cccnc5)nc4cn3)nc2)CC1 | 2510 | > 10000 | – | – | –
15 | CN1CCN(c2ccc(Nc3cc4c(N(C)C)nc(Nc5ccccc5)nc4cn3)nc2)CC1 | 1160 | 7350 | – | > 10000 | –
16 | CN(CCCO)c1nc(Nc2ccc(F)cc2)nc2cnc(Nc3ccc(N4CCC(N(C)C)CC4)cn3)cc12 | 80 | 300 | 51.9 | 420 | –
17 | CN(C)C1CCN(c2ccc(Nc3cc4c(N5CCC(CO)CC5)nc(Nc5ccccc5)nc4cn3)nc2)CC1 | 64 | 420 | 82.9 | 690 | IC50 [5]: 44.1 nM; IC50 [6]: 2.1 nM; IC50 [7]: 3.2 nM
18 | CN1CCN(c2ccc(Nc3cc4c(N(C)C)nc(Nc5ccccc5)nc4cn3)cc2)CC1 | > 10000 | – | – | – | –

Row | SMILES | IC50 [1] [nM] | IC50 [2] [nM] | IC50 [3] [nM] | IC50 [4] [nM] | also measured
19 | CN(C)C1CCN(c2ccc(Nc3cc4c(N5CCCCC5)nc(Nc5ccccc5)nc4cn3)nc2)CC1 | 240 | 1020 | 15 | 540 | IC50 [5]: 23.2 nM; IC50 [6]: 0.9 nM; IC50 [7]: 4.9 nM
20 | CN(C)C1CCN(c2ccc(Nc3cc4c(N5CCOCC5)nc(Nc5ccc(F)c(Cl)c5)nc4cn3)nc2)CC1 | 390 | 1160 | – | 970 | –
21 | C=CC(=O)Nc1cc(Nc2nccc(-c3cn(C)c4ccccc34)n2)c(OC)cc1N(C)CCN(C)C [OSIMERTINIB] | 27 | – | – | – | Activity [8]: 8.28%; Activity [9]: 68.1%
22 | CN(C)CCN(C)c1ccc(Nc2cc3c(N4CCCC4)nc(Nc4ccccc4)nc3cn2)nc1 | 1890 | 820 | – | 1300 | –
23 | CN(CCO)c1nc(Nc2ccccc2)nc2cnc(Nc3ccc(N4CCC(N(C)C)CC4)cn3)cc12 | 240 | 590 | 51.3 | 690 | –
24 | CN1CCN(c2ccc(Nc3cc4c(N5CCCC5)nc(Nc5cnn(C)c5)nc4cn3)nc2)CC1 | 3660 | 2170 | – | – | –
25 | CN(C)C1CCN(c2ccc(Nc3cc4c(N5CCC(CO)CC5)nc(Nc5ccc(F)cc5)nc4cn3)nc2)CC1 | 44 | 400 | 7.2 | 1060 | IC50 [5]: 34 nM; inhibition [10]: inactive; inhibition [11]: Dose-dependent effect; Activity [8]: 6.21%; inhibition [12]: inactive; IC50 [6]: 10.4 nM; IC50 [7]: 1.1 nM; Activity [9]: 74.26%
26 | CN(C)C1CCN(c2ccc(Nc3cc4c(N5CCOCC5)nc(OC5CCOCC5)nc4cn3)nc2)CC1 | 6910 | > 10000 | – | – | –
27 | CN1CCN(c2ccc(Nc3cc4c(N5CCOCC5)nc(Nc5cccnc5)nc4cn3)nc2)CC1 | 5430 | – | – | – | –
28 | CN(C)C1CCN(c2ccc(Nc3cc4c(N5CCCC5)nc(Nc5ccccc5)nc4cn3)nc2)CC1 | 650 | 790 | 62.2 | 740 | IC50 [5]: 65.6 nM; IC50 [6]: 5.5 nM; IC50 [7]: 1.6 nM
29 | CN1CCN(c2ccc(Nc3cc4c(N5CCCC5)nc(Nc5cccc(F)c5)nc4cn3)nc2)CC1 | 1010 | > 10000 | – | > 10000 | –
30 | CN(C)C1CCN(c2ccc(Nc3cc4c(N5CCOCC5)nc(Nc5ccc(F)cc5F)nc4cn3)nc2)CC1 | 350 | 980 | 53.6 | 1140 | IC50 [5]: 30 nM; IC50 [6]: 0.9 nM; IC50 [7]: 2.1 nM
31 | CN(C)C1CCN(c2ccc(Nc3cc4c(N5CCOCC5)nc(Nc5ccc(F)cc5)nc4cn3)nc2)CC1 | 310 | 1670 | 28 | 530 | IC50 [5]: 28.8 nM; IC50 [6]: 1.5 nM; IC50 [7]: 2.5 nM
32 | CN1CCN(c2ccc(Nc3cc4c(N5CCOCC5)nc(Nc5cccc(C(F)(F)F)c5)nc4cn3)nc2)CC1 | > 10000 | – | – | – | –
33 | CN1CCN(c2ccc(Nc3cc4c(N5CCOCC5)nc(Nc5ccccc5)nc4cn3)nc2)CC1 | 200 | 1280 | – | 1020 | –
34 | CN(C)C1CCN(c2ccc(Nc3cc4c(N5CCOCC5)nc(OCC5CCOCC5)nc4cn3)nc2)CC1 | > 10000 | > 10000 | – | – | –
35 | CN(C)C1CCN(c2ccc(Nc3cc4c(N5CCOCC5)nc(Nc5ccccn5)nc4cn3)nc2)CC1 | 1660 | 2650 | – | – | –

Reference: ChEMBL document CHEMBL4196024, “Discovery of 2,4,6-trisubstitued pyrido[3,4-d]pyrimidine derivatives as new EGFR-TKIs” (Eur J Med Chem, 2018)
